Paper PMC7504387, “Antimicrobial and Amyloidogenic Activity of Peptides Synthesized on the Basis of the Ribosomal S1 Protein from Thermus Thermophilus” (International Journal of Molecular Sciences, 2020)
Values after ≈ are worked out from the molar mass of the structure shown. Where a SMILES comes first, the peptide text is derived from it.

Columns and labels:
[1] = system: T. thermophilus cell culture; type: cell-based
Protocol: UV-Vis spectra were recorded using a spectrophotometr SF-102 (Akvilon, Moscow, Russia). At the end of the incubation, the density of the medium was estimated by spectrophotometry in a cuvette 10 mm with a total volume of 100 μL. The cuvettes were filled with the peptide water solutions and spectra were collected, using a wavelength from 600 nm. Biological activity of peptides was evaluated by their minimum concentration, which that may inhibit the growth of T. thermophilus bacteria culture. Biological activity of peptides was counted by using the following equation: (1) E=1−A (sample with peptide)/A (sample without peptide), where E is a biological activity of peptides, A is an optical absorption after 24 h incubation with and without peptide.
To construct a dose-effect curve and estimate the quantitative parameters of the curves, the statistical environment R and the drc package were used. The choice of model for describing the functional dependence was determined by several parameters: the logarithm of the maximum value of the likelihood function (logLik), the Akaike information criterion (IC), and the residual variance (Res var).
The algorithm for evaluating antimicrobial activity includes the study of this process and the dose–response relationship. The reaction of a biological object determines a quantitative assessment of the antimicrobial effect, depending not only on the concentration of the peptide, but also on the time of its action. Almost any impact begins with a certain threshold. An important final result of the experiment is the assessment of this threshold—the minimum inhibitory concentration (MIC) at which peptide influence is observed.

[2] = Transmission electron microscopy of peptide preparations; type: physicochemical; details: peptide alone, negative staining, TEM
Protocol: (§1) The presence of amyloid fibrils in the test samples was monitored by transmission electron microscopy (TEM). End-point solutions of peptides were collected and the samples were dissolved in the same solution to 0.2 mg/mL before studying with electron microscopy. A formvar-coated copper grid 400 mesh (Electron Microscopy Sciences, Hatfield, PA, USA) was placed on a 10 μL sample. After 5 min absorption, the grids with the preparation were negatively stained for 1.5–2.0 min with 1% (weight/volume) aqueous solution of uranyl acetate. The excess of the staining agent was removed with filter paper. The preparations were analyzed using a JEM-100C (Jeol, Tokyo, Japan) transmission electron microscope at the accelerating voltage of 80 kV. Images were recorded on the Kodak electron image film (SO-163) at nominal magnification of 40,000–60,000.

[3] = system: ribosomal S1 protein from T. thermophilus; assay: Electron microscopy, coaggregation of peptide with S1 protein
Protocol: as §1

CC[C@H](C)[C@H](NC(=O)[C@H](CCC(=O)O)NC(=O)[C@@H](NC(=O)[C@H](Cc1ccccc1)NC(=O)[C@@H](NC(=O)CNC(=O)[C@H](Cc1ccccc1)NC(=O)[C@H](CC(=O)O)NC(=O)[C@@H](NC(=O)[C@@H](NC(=O)CNC(=O)CN(C)C(=O)CNC(=O)CNC(=O)[C@H](CCCNC(=N)N)NC(=O)[C@H](CCCNC(=N)N)NC(=O)[C@H](CCCNC(=N)N)NC(=O)[C@H](CCC(N)=O)NC(=O)[C@H](CCCNC(=N)N)NC(=O)[C@H](CCCNC(=N)N)NC(=O)[C@H](CCCCN)NC(=O)[C@H](CCCCN)NC(=O)[C@@H](N)CCCNC(=N)N)C(C)C)[C@@H](C)O)C(C)C)C(C)C)C(=O)O [R23I] (HELM PEPTIDE1{R.K.K.R.R.Q.R.R.R.G.G.[Sar].G.V.T.D.F.G.V.F.V.E.I}$$$$V2.0; N-terminus and C-terminus assumed)
change of optical density of T. thermophilus culture over time ([1]; 50 μg/mL in medium, OD 600 nm versus sampling time, DMSO control reached 0.8): no increase in the optical density | minimal inhibitory concentration (MIC) ([1]; T. thermophilus culture, optical absorption at 600 nm after 24 h incubation, 5 repeats for R23I, 2 for R23T and V10I): 50 µg/mL (≈ 18.6 µM) | concentration at which a pronounced antibacterial effect is observed (no activity below) ([1]; T. thermophilus culture, additional concentrations 0.5-250 μg/mL tested): 40 µg/mL | concentration leading to formation of aggregates in solution and increase in optical density ([1]; culture medium, OD 600 nm): ≥ 500 µg/mL | aggregate/fibril morphology according to electron microscopy [2]: aggregates of different sizes and complexes of aggregates are present | morphology of peptide/S1 protein mixture by electron microscopy ([3]; peptide:S1 protein ratio 1:1): both the protein aggregates and fibrils were observed | morphology of peptide/S1 protein mixture by electron microscopy ([3]; peptide:S1 protein ratio 5:1 (S1:peptide = 1:5)): both the protein aggregates and fibrils were observed
